The numbers were not newly measured in publication PMC1657008, “Rotavirus NSP4_114-135 peptide has no direct, specific effect on chloride transport in rabbit brush-border membrane” (Virology Journal, 2006), which cites them from elsewhere.

The test system of the series is neonatal mouse intestinal mucosal sheets. The conditions noted are these: added to neonatal mouse intestinal mucosal sheets; ref [1]. An excerpt:
However, the cellular and molecular bases by which rotavirus and NSP4 induce a moderate net chloride secretion remain unclear.

Take `C[N+](C)(C)CCOC(N)=O` [carbachol]: the Cl- secretory currents result is “transient, small and almost identical increases in Cl^- secretory currents”.
